According to patent US9062043B2, “Fused tricyclic compounds as serine-threonine protein kinase and PARP modulators” (SENHWA BIOSCIENCES, INC., priority 2006, dated 2015):

Legend:
[1] = Body weight of tumor-bearing xenograft animals; assay type: in vivo; settings: BC-PC3 xenograft mice, IV and IP dosing
[2] = Tumor pharmacokinetic study, 30 mg/kg IV QDx6; assay type: in vivo, mice
recombinant human PIM-1 = recombinant human PIM-1 (Homo sapiens (Human), UniProt P11309); experiment: PIM-1 assay (cell-free, radiometric); assay type: biochemical
Procedure: The reactions are incubated for 10 min at 30° C., quenched with 100 ul of 0.75% Phosphoric acid, then transferred to and filtered through a Phosphocellulose filter plate (Millipore). After washing each well 5 times with 0.75% Phosphoric acid, Scintilation fluid (15 ul) is added to each well. The residual radioactivity is measured using a […].

protein kinases [3] = biological target: protein kinases (Homo sapiens, UniProt O00418); experiment: Kinase inhibition, percentage of activity at 0.5 μM, standardized radiometric kinase assays; assay type: biochemical; settings: eEF-2K(h);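 note: each kinase tested separately, with activity read as 33P-labelled substrate protein captured on filters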
protein kinases [4] = biological target: protein kinases (Homo sapiens, UniProt P00519); experiment: as above; assay type: biochemical; settings: Abl(h)
protein kinases [5] = biological target: protein kinases (Homo sapiens, UniProt P04049); experiment: as above; assay type: biochemical; settings: c-RAF(h)
protein kinases [6] = biological target: protein kinases (Homo sapiens, UniProt P06241); experiment: as above; assay type: biochemical; settings: Fyn(h)
protein kinases [7] = biological target: protein kinases (Homo sapiens, UniProt P06493); experiment: as above; assay type: biochemical; settings: CDK1/cyclinB(h)
protein kinases [8] = biological target: protein kinases (Homo sapiens, UniProt P07948); experiment: as above; assay type: biochemical; settings: Lyn(h)
protein kinases [9] = biological target: protein kinases (Homo sapiens, UniProt P09619); experiment: as above; assay type: biochemical; settings: PDGFRβ(h)
protein kinases [10] = biological target: protein kinases (Homo sapiens, UniProt P10721); experiment: as above; assay type: biochemical; settings: cKit(h)
protein kinases [11] = biological target: protein kinases (Homo sapiens, UniProt P10721, V560G); experiment: as above; assay type: biochemical; settings: cKit(V560G)(h)
protein kinases [12] = biological target: protein kinases (Homo sapiens, UniProt P11362); experiment: as above; assay type: biochemical; settings: FGFR1(h)
protein kinases [13] = biological target: protein kinases (Homo sapiens, UniProt P12931); experiment: as above; assay type: biochemical; settings: Src(1-530)(h)
protein kinases [14] = biological target: protein kinases (Homo sapiens, UniProt P16234); experiment: as above; assay type: biochemical; settings: PDGFRα(h)
protein kinases [15] = biological target: protein kinases (Homo sapiens, UniProt P31749); experiment: as above; assay type: biochemical; settings: PKBα(h)
protein kinases [16] = biological target: protein kinases (Homo sapiens, UniProt P35968); experiment: as above; assay type: biochemical; settings: KDR(h)
protein kinases [17] = biological target: protein kinases (Homo sapiens, UniProt P43403); experiment: as above; assay type: biochemical; settings: ZAP-70(h)
protein kinases [18] = biological target: protein kinases (Homo sapiens, UniProt P51955); experiment: as above; assay type: biochemical; settings: NEK2(h)
protein kinases [19] = biological target: protein kinases (Homo sapiens, UniProt Q04759); experiment: as above; assay type: biochemical; settings: PKC0(h)
protein kinases [20] = biological target: protein kinases (Homo sapiens, UniProt Q04912); experiment: as above; assay type: biochemical; settings: Ron(h)
protein kinases [21] = biological target: protein kinases (Homo sapiens, UniProt Q05397); experiment: as above; assay type: biochemical; settings: FAK(h)
protein kinases [22] = biological target: protein kinases (Homo sapiens, UniProt Q12866); experiment: as above; assay type: biochemical; settings: Mer(h)
protein kinases [23] = biological target: protein kinases (Homo sapiens, UniProt Q9H4B4); experiment: as above; assay type: biochemical; settings: Plk3(h)
protein kinases [24] = biological target: protein kinases (Homo sapiens, UniProt Q9UEE5); experiment: as above; assay type: biochemical; settings: DRAK1(h)

protein kinases (Homo sapiens, UniProt P09619), sequence (P09619 33-1106 limits assumed): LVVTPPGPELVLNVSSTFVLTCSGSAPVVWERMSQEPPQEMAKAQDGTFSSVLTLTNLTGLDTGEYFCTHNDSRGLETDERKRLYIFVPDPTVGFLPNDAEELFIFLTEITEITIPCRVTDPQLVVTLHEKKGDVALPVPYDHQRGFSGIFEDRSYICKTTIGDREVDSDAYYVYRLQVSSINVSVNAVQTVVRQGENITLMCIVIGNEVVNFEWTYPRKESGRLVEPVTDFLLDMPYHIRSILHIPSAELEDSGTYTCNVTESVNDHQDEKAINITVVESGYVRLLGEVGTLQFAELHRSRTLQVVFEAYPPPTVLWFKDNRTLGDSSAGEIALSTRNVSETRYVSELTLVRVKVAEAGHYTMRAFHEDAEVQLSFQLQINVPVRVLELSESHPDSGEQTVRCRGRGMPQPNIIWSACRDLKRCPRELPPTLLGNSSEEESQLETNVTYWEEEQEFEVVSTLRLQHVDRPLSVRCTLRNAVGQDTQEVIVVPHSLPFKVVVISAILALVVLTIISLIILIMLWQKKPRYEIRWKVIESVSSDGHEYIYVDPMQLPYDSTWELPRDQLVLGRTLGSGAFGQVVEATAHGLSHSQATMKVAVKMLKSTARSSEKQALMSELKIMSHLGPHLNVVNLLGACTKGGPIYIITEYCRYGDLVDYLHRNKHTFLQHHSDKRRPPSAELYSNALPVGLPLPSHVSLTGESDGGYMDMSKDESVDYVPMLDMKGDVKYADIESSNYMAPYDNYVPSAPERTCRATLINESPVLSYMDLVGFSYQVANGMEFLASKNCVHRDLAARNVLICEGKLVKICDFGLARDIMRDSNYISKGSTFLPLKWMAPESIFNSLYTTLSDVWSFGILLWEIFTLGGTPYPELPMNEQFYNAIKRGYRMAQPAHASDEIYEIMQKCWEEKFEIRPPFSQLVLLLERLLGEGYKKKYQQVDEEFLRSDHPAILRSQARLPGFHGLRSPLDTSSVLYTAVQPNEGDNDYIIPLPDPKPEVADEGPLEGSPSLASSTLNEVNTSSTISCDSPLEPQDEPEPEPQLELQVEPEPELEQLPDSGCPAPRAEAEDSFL
protein kinases (Homo sapiens, UniProt P06241), sequence (P06241 2-537 limits assumed): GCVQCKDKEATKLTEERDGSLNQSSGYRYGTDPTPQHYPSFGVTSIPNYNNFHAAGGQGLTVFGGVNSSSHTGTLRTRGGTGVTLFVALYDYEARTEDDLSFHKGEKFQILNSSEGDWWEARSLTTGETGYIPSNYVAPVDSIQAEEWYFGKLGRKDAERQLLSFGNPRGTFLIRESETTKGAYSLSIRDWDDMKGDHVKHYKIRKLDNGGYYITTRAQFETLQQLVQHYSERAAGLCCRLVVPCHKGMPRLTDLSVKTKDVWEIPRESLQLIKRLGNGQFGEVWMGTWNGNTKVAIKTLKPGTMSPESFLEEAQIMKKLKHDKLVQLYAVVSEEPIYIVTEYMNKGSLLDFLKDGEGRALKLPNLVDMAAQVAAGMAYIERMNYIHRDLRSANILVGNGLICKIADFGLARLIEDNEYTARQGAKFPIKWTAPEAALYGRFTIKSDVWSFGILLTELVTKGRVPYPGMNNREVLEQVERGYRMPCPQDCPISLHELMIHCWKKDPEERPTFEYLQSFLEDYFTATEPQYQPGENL
protein kinases (Homo sapiens, UniProt Q05397), sequence (Q05397 2-1052 limits assumed): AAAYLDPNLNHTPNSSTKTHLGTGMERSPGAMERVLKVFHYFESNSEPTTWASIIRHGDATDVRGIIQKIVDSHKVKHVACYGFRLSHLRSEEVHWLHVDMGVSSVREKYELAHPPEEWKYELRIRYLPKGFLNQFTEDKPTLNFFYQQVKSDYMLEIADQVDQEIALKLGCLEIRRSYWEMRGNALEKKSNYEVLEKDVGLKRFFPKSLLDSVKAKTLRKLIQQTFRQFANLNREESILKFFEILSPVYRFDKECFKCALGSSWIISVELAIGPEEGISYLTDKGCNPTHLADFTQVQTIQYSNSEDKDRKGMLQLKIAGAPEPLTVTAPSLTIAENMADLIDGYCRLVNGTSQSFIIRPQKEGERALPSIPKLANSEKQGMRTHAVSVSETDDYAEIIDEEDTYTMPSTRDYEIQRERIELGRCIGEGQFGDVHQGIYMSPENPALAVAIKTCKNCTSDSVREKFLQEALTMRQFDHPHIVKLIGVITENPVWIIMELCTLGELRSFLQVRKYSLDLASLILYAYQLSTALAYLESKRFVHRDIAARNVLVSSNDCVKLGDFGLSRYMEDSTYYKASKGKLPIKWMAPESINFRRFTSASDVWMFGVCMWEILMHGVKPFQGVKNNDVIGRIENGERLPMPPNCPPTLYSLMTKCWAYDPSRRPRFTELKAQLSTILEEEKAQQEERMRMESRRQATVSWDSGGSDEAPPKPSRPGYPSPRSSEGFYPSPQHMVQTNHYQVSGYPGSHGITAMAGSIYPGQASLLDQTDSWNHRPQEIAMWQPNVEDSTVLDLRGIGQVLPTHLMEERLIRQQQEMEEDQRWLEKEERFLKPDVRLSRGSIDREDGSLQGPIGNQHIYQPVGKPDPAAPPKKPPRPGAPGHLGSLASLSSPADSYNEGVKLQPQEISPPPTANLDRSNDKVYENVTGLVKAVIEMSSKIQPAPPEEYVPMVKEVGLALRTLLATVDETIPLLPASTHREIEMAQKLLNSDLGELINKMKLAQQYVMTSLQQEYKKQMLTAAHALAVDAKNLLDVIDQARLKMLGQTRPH
protein kinases (Homo sapiens, UniProt O00418), sequence (O00418 2-725 limits assumed): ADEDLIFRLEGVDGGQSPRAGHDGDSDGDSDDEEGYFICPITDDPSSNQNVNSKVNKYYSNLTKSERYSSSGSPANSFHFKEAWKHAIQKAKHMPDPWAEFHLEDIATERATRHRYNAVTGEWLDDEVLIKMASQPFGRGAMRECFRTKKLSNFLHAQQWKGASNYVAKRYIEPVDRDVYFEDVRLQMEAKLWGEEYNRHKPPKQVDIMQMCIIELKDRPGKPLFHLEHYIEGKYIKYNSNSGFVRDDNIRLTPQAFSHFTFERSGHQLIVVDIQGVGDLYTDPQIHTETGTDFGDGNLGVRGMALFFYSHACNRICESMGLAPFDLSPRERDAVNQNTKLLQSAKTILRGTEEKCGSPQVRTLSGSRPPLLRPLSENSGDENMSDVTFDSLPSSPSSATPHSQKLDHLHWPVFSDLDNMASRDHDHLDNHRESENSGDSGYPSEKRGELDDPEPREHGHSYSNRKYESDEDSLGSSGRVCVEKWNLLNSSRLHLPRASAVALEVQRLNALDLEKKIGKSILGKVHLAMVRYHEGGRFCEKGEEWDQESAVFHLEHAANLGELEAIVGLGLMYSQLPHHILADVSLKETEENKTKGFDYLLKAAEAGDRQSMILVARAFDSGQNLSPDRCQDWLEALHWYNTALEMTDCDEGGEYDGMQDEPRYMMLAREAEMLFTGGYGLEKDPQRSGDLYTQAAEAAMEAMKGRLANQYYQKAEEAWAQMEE
protein kinases (Homo sapiens, UniProt P35968), sequence (P35968 20-1356 limits assumed): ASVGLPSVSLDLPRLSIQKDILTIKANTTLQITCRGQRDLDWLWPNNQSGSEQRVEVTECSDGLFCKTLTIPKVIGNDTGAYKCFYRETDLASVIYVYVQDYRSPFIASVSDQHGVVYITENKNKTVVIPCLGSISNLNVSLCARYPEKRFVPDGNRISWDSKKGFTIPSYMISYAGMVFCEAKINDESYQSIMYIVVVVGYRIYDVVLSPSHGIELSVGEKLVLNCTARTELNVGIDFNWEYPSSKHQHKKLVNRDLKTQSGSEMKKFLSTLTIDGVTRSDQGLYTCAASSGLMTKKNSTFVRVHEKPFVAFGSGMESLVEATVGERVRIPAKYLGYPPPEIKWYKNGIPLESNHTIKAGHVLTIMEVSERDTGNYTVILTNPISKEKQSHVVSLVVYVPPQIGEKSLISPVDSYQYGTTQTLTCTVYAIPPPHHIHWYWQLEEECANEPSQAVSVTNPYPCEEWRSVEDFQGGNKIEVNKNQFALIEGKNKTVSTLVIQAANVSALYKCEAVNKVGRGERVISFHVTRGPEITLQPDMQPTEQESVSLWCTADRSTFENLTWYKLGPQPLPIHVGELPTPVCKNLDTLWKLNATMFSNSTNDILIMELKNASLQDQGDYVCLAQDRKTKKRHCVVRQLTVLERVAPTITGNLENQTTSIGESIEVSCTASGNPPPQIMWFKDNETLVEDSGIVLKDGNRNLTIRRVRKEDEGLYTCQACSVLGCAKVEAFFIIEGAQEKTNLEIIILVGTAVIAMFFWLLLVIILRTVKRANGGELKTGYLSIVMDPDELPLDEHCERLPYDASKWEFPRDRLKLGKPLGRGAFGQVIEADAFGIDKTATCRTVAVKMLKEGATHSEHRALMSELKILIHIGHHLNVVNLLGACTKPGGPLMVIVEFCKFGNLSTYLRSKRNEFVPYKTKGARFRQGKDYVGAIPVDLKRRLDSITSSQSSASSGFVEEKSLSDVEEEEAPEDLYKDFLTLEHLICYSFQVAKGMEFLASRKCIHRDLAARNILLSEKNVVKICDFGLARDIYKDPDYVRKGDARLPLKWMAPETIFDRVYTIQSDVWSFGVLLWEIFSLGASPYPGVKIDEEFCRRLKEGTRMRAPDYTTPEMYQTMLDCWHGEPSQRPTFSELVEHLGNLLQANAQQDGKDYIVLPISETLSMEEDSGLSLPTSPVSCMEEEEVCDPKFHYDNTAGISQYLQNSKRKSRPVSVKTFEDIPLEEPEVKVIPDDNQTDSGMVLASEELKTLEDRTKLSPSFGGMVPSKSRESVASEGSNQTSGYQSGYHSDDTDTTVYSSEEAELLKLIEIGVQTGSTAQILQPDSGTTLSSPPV
recombinant human PIM-1, sequence (P11309 whole entry): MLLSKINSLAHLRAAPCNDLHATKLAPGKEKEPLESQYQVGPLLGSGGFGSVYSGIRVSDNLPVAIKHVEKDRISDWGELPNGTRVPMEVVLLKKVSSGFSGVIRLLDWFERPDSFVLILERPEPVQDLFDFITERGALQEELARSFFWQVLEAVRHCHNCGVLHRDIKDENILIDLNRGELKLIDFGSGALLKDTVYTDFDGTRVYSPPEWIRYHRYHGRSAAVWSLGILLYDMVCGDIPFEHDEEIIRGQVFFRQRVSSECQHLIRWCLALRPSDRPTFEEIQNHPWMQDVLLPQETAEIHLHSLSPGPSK

Compound: C#Cc1cccc(Nc2nc3cc(C(=O)O)ccc3c3cncnc23)c1 [compound A2]
- Body weight (FIG. 4B) [1]: not significantly altering body weight
- Half life change on repeated dosing [2]: about doubles
- Minimum concentration increase after six days [2]: 4-5 times higher
- Time to steady state [2]: about three days
- IC50 (recombinant human PIM-1): 189 nM
- activity at 0.5 µM (protein kinases [3]): 106%
- activity at 0.5 µM (protein kinases [4]): 91%
- activity at 0.5 µM (protein kinases [5]): 69%
- activity at 0.5 µM (protein kinases [6]): 114%
- activity at 0.5 µM (protein kinases [7]): 52%
- activity at 0.5 µM (protein kinases [8]): 109%
- activity at 0.5 µM (protein kinases [9]): 110%
- activity at 0.5 µM (protein kinases [10]): 114%
- activity at 0.5 µM (protein kinases [11]): 111%
- activity at 0.5 µM (protein kinases [12]): 103%
- activity at 0.5 µM (protein kinases [13]): 101%
- activity at 0.5 µM (protein kinases [14]): 109%
- activity at 0.5 µM (protein kinases [15]): 104%
- activity at 0.5 µM (protein kinases [16]): 67%
- activity at 0.5 µM (protein kinases [17]): 118%
- activity at 0.5 µM (protein kinases [18]): 77%
- activity at 0.5 µM (protein kinases [19]): 111%
- activity at 0.5 µM (protein kinases [20]): 106%
- activity at 0.5 µM (protein kinases [21]): 97%
- activity at 0.5 µM (protein kinases [22]): 46%
- activity at 0.5 µM (protein kinases [23]): 106%
- activity at 0.5 µM (protein kinases [24]): 62%
